According to US5190934A, “P-subsituted propane-phosphinic acid compounds” (Ciba-Geigy Corporation, priority 1989, dated 1993):

Test system: "epileptic"-like discharges of pyramidal cells
Experiment: Penicilline-induced "epileptic" hippocampal slice preparation
Assay type: cell-based
Settings: baclofen at 6 μM
Procedure: The GABAB antagonists of the present invention interact at the GABAB receptor with IC50 values starting from about 10^-7 M (moles/liter) in rat brain cortex membranes. […] The antagonism against baclofen has also been shown in in vitro electrophysiological models, such as the penicilline-induced "epileptic" hippocampal slice preparation, where baclofen, at a concentration of 6 μM inhibits "epileptic"-like discharges of pyramidal cells. The compounds of the invention antagonise the effects of baclofen at concentrations from approximately 10 to approximately 100 μM. In vivo, antagonism has been shown by ionophoresis of baclofen on rat cerebral cortex, and systemic application of antagonists in doses of 10-100 mg/kg. The muscle relaxant effects of baclofen measured in the rotarod model are also antagonized at doses of about 30 mg/kg i.p.

For `NCC(CC(=O)O)c1ccc(Cl)cc1` (stereo not shown) [baclofen], the “effect on "epileptic"-like discharges of pyramidal cells” value was “inhibits”.
